Data published in US6541978B1, “Method, system and device for producing signals from a substance biological and/or chemical activity” (priority 1998, dated 2003).
“And” between values parts separate entries of the source, which are not always exact repeats. Identical values can stand only once.

Key:
skin of a guinea-pig = assay: Guinea-pig cutaneous test (Evans blue marks); format: in vivo; settings: 0.1 ml ponderal solution at 10^−6M injected under the skin; single injections
Excerpt: As an example, with reference to FIG. 4, a presentation is given below of the test known under the name of guinea-pig cutaneous test and described in chapter 11 (p.346-351) in the second edition of “Immunology” edited by Jean-Francois Bach, coll. John Wiley & Sons; or further in the 3rd edition of “The handbook of Experimental Immunology” edited by D. M. Weir, coll. Blackwell, Ch. 21 “Passive cutaneous anaphylaxis (PCA)” by W. E. Brocklehurst; or further in the work edited by Williams & Chase entitled “Methods in IMMUNOLOGY and IMMUNOCHEMISTRY”—Vol. 5—Ch. 19 “Anaphylaxis”.
The guinea-pig is used when still alive, and is given a n intravenous injection of a blue colorant (Evans blue—Sigma E 2129) which fixes on the blood albumin.
The test is carried out by injecting under the skin of the animal prepared in this way, 0.1 ml of the solution whose activity is to be controlled. Nextone measures the diameter of the blue marks appearing around the points of injection. In order to do this the skin is scanned, and then the bitmap image file is recorded. Finally the sizes of the blue marks due to the reaction are evaluated.
In the example described, a control was carried out of the presence of signals characteristic of the biological activity of the acetylcholine neuromediator (ACh; Sigma A2661) in solution in a physiological solution, by analysing the effects o n the skin of a guinea-pig: […]

[1] = tested on: isolated guinea-pig heart; assay: Perfused isolated guinea-pig heart (Langendorff), injections of the substances; settings: injection of substance 10^−6M
Excerpt: As an example of a biological control system, an d referring to FIG. 2, a test will be described below derived from that known under the test name of a perfused isolated guinea-pig heart (or Langendorff experiment) and whose process is described in the work entitled: “Methods in Immunology and Immunochemistry” published by Williams and Chase, Academic Press 1976, particularly page 68; or further in the work entitled: “L'experimentation animate en cardiologie” INSERM Médecine-Science—Coll. Flammarion—Author Bernard […]—particularly Ch. 3.1 p.81 “Organe Isolé—Coceur Isolé selon Langendorff—Montage à pression coronaire constante”; or further in the work entitled “The isolated perfused Heart according to Langendorff” H. J. Döiring, H. Dehnart—Biomesstechnik—Verlag March GmbH, D-7806 March. In FIG. 2 one recognises the diagram known from the Langendorff experiment. The equipment described in these works has been completed by a transducer in the form of a bobbin 60 of a varnished copper wire of diameter 0.5 mm, with a diameter of 110 mm, a length of 40 mm and with an impedance of 4 ohms.
The fraction collector collected the tubes making it possible to measure the debit of the guinea-pig heart at the rate of 1 tube per minute. The buffer solution crossing the heart had the following composition: CaCl 2 mM, NaHCO3 25 mM, NaCl 118 mM, MgSO4 1.2 mM, KHPO4 1.2 mM, Glucose 11 mM, Pyruvate 2 mM.

SMILES	Dia. in mm (diameter of the blue marks around the points of injection) (skin of a guinea-pig)	quantity of the buffer solution recuperated in the collector tubes ([1]; time 1 min) [mL]	quantity of the buffer solution recuperated in the collector tubes ([1]; time 2 min) [mL]	quantity of the buffer solution recuperated in the collector tubes ([1]; time 3 min) [mL]	quantity of the buffer solution recuperated in the collector tubes ([1]; time 4 min) [mL]	quantity of the buffer solution recuperated in the collector tubes ([1]; time 5 min) [mL]	quantity of the buffer solution recuperated in the collector tubes ([1]; time 6 min) [mL]	quantity of the buffer solution recuperated in the collector tubes ([1]; time 7 min) [mL]	quantity of the buffer solution recuperated in the collector tubes ([1]; time 8 min) [mL]	quantity of the buffer solution recuperated in the collector tubes ([1]; time 9 min) [mL]	quantity of the buffer solution recuperated in the collector tubes ([1]; time 10 min) [mL]	quantity of the buffer solution recuperated in the collector tubes ([1]; time 11 min) [mL]	quantity of the buffer solution recuperated in the collector tubes ([1]; time 12 min) [mL]	quantity of the buffer solution recuperated in the collector tubes ([1]; time 13 min) [mL]	quantity of the buffer solution recuperated in the collector tubes ([1]; time 14 min) [mL]	quantity of the buffer solution recuperated in the collector tubes ([1]; time 15 min) [mL]	quantity of the buffer solution recuperated in the collector tubes ([1]; time 20 min) [mL]	quantity of the buffer solution recuperated in the collector tubes ([1]; time 25 min) [mL]	quantity of the buffer solution recuperated in the collector tubes ([1]; time 30 min) [mL]
CC(=O)OCC[N+](C)(C)C [ACh, acetylcholine]	23 mm and 25 mm and 21 mm and 18 mm	–	–	–	–	–	–	–	–	–	–	–	–	–	–	–	–	–	–
CNc1ccc2oc(C[C@H]3O[C@@]4(CC[C@H]3C)O[C@H]([C@H](C)C(=O)c3ccc[nH]3)[C@H](C)C[C@H]4C)nc2c1C(=O)O [ionophoretic-calcium, ionophoretic-calcium A 23187]	–	5.1	5.0	5.2	5.0	4.9	5.4	5.6	6.2	6.4	6.4	6.2	6.0	6.0	5.9	6.0	5.7	5.4	5.2
Cn1c(=O)c2c(ncn2C)n(C)c1=O [caffeine]	–	5.1	5.0	5.0	4.9	4.6	4.2	4.0	4.1	4.0	4.2	4.1	4.3	4.4	4.5	4.5	4.6	4.5	4.5
